{
  "source": "patent US20190201721A1",
  "about": "“ORAL CARE PRODUCTS AND METHODS COMPRISING HYDROXYAPATITE BINDING PROTEINS” (BASF SE, priority 2015, published 2019)",
  "data": [
    {"test_system": "not listed separately", "assay": "Binding assay of carboxyfluorescein-labeled peptides/proteins to hydroxyapatite powder", "details": "2 μM N-terminal labeled peptide/protein, 10 mg hydroxyapatite powder, HBS-T buffer, 2 h, 37° C.", "procedure": "(§1) i. Petide/Protein Labeling For binding studies 5(6)-carboxyfluorescein was conjugated to the N-terminus of the peptides/proteins by using the corresponding succinimidyl ester (Invitrogen, Darmstadt, Germany). The labeling reaction was performed according to the manufactures protocol (Invitrogen, Darmstadt, Germany). After conjugation, the labeled peptide/protein was purified either with a PD-10 desalting column for proteins larger than 5 kDa or a PD MidiTrap G-10 for smaller proteins (GE Healthcare, Buckinghamshire, UK) or for peptides by HPLC on RP18 column. ii. Peptide/Protein Binding For the binding experiments N-terminal labeled peptides/proteins were used in a final concentration of 2 μM. The binding was carried out in HBS-T buffer (150 mM NaCl, 50 mM HEPES pH 7.5, 0.1% Tween 20). The peptides/proteins were exposed to 10 mg hydroxyapatite powder (Fluke) for 2 h at 37° C. After five wash steps with HBS-T buffer the bound peptide/protein was visualized by fluorescence microscopy with the appropriate filters (excitation 475/50; emission 525/50). To quantify the binding, the fluorescence intensity of the solution before (Fi) and after (Ff) binding was measured with a Fluostar Galaxy (BMG, Ortenberg, Germany) and the amount of bound peptide/protein was estimated (cbound=[1−(Ff/Fi)]×c0). The peptide LIKHILHRL, which was described as a non-binding peptide to hydroxyapatite, was used as a negative control [Yarbrough D K, Hagerman E, Eckert R, He J, Choi H, Cao N, et al. Specific binding and mineralization of calcified surfaces by small peptides. Calcif Tissue Int 2010; 86(1):58-66.]. All binding experiments were carried out as triplicates. Evaluation: +: 30-50% bound peptide on HAP; ++: 50-100% bound peptide on HAP", "values": [
      {"molecule": "AFP4-His6 (protein, His6 tag) MRFIVSLLAFTAAATATALPASAAKNAKLATSAAFAKQAEGTTCNVGSIACCNSPAETNNDSLLSGLLGAGLLNGLSGNTGSACAKASLIDQLGLLALVDHTEEGPVCKNIVACCPEGTTNCVAVDNAGAGTKAE", "bound peptide on HAP": "(35%)"},
      {"molecule": "IPTLPSS-GGG-AFP4-His6 (protein, fusion of HABP peptide IPTLPSS via GGG spacer to antifreeze protein AFP4-His6) MKFSIAAAVVAFAASVAALPPAHDSQFAGNGVGNKGNSNVKFPVPENVTVKQASDKCGDQAQLSCCNKATYAGDTTTVDEGLLSGALSGLIGAGSGAEGLGLFDQCSKLDVAVLIGIQDLVNQKCKQNIACCQNSPSSADGNLIGVGLPCVALGSIL", "bound peptide on HAP": "(60%)"}
    ]},
    {"test_system": "not listed separately", "assay": "Binding assay of carboxyfluorescein-labeled peptides/proteins to hydroxyapatite powder", "details": "2 μM N-terminal labeled peptide/protein, 10 mg hydroxyapatite powder, HBS-T buffer, 2 h, 37° C., triplicates", "procedure": "as §1", "values": [
      {"molecule": "NERALTL [SEQ ID NO: 13]", "bound peptide on HAP (evaluation class)": "+ (+: 30-50% bound peptide on HAP)"},
      {"molecule": "YQGASEN [SEQ ID NO: 8]", "bound peptide on HAP (evaluation class)": "++ (++: 50-100% bound peptide on HAP)"},
      {"molecule": "TTSTRHI [SEQ ID NO: 12]", "bound peptide on HAP (evaluation class)": "+ (+: 30-50% bound peptide on HAP)"},
      {"molecule": "IPTLPSS [SEQ ID NO: 7]", "bound peptide on HAP (evaluation class)": "++ (++: 50-100% bound peptide on HAP)"},
      {"molecule": "YPVTPSI [SEQ ID NO: 6]", "bound peptide on HAP (evaluation class)": "+ (+: 30-50% bound peptide on HAP)"},
      {"molecule": "HPPLHHA [SEQ ID NO: 2]", "bound peptide on HAP (evaluation class)": "+ (+: 30-50% bound peptide on HAP)"},
      {"molecule": "EHITTSN [SEQ ID NO: 9]", "bound peptide on HAP (evaluation class)": "+ (+: 30-50% bound peptide on HAP)"},
      {"molecule": "MQTVEVT [SEQ ID NO: 14]", "bound peptide on HAP (evaluation class)": "+ (+: 30-50% bound peptide on HAP)"},
      {"molecule": "TLPASSV [SEQ ID NO: 16]", "bound peptide on HAP (evaluation class)": "++ (++: 50-100% bound peptide on HAP)"},
      {"molecule": "GKVQAQS [SEQ ID NO: 5]", "bound peptide on HAP (evaluation class)": "+ (+: 30-50% bound peptide on HAP)"},
      {"molecule": "IDDYTRA [SEQ ID NO: 1]", "bound peptide on HAP (evaluation class)": "++ (++: 50-100% bound peptide on HAP)"},
      {"molecule": "IPITNLR [SEQ ID NO: 11]", "bound peptide on HAP (evaluation class)": "+ (+: 30-50% bound peptide on HAP)"},
      {"molecule": "GSPATAA [SEQ ID NO: 4]", "bound peptide on HAP (evaluation class)": "+ (+: 30-50% bound peptide on HAP)"},
      {"molecule": "SPSTHWK [SEQ ID NO: 3]", "bound peptide on HAP (evaluation class)": "+ (+: 30-50% bound peptide on HAP)"},
      {"molecule": "SWGTQTD [SEQ ID NO: 15]", "bound peptide on HAP (evaluation class)": "+ (+: 30-50% bound peptide on HAP)"},
      {"molecule": "RILITIP [SEQ ID NO: 10]", "bound peptide on HAP (evaluation class)": "+ (+: 30-50% bound peptide on HAP)"},
      {"molecule": "AFP4-His6 (protein, His6 tag) MRFIVSLLAFTAAATATALPASAAKNAKLATSAAFAKQAEGTTCNVGSIACCNSPAETNNDSLLSGLLGAGLLNGLSGNTGSACAKASLIDQLGLLALVDHTEEGPVCKNIVACCPEGTTNCVAVDNAGAGTKAE", "bound peptide on HAP (evaluation class)": "+ (+: 30-50% bound peptide on HAP)"},
      {"molecule": "IPTLPSS-GGG-AFP4-His6 (protein, fusion of HABP peptide IPTLPSS via GGG spacer to antifreeze protein AFP4-His6) MKFSIAAAVVAFAASVAALPPAHDSQFAGNGVGNKGNSNVKFPVPENVTVKQASDKCGDQAQLSCCNKATYAGDTTTVDEGLLSGALSGLIGAGSGAEGLGLFDQCSKLDVAVLIGIQDLVNQKCKQNIACCQNSPSSADGNLIGVGLPCVALGSIL", "bound peptide on HAP (evaluation class)": "++ (++: 50-100% bound peptide on HAP)"}
    ]},
    {"test_system": "not listed separately", "assay": "Binding to and release from calcium phosphate discs (HA-discs) after saliva incubation", "details": "read out by TRPM8 activation of the supernatant", "procedure": "The hybrid molecules of example 4 (5 μM in Tris buffer pH 8) were incubated with calcium phosphate discs (HA-discs from Himed) at 37° C. for 1 hr. Unbound molecules were removed by washing 3-times with Tris buffer. The coated calcium phosphate discs were incubated with buffer as a control and in parallel with pooled human saliva (5 donors; 37° C., for 2 hrs). The supernatant was centrifuged and evaluated for cooling activity by specific activation of human cool receptor TRPM8.\nThe agonisation or antagonisation of the receptor was quantified by means of a Ca^2+-sensitive dye (e.g. FURA, Fluo-4, etc.). Agonists on their own bring about an increase in the Ca^2+-signal; antagonists in the presence of, for example, menthol bring about a reduction in the Ca^2+-signal (in each case detected by means of the Fluo-4 dye, which due to the Ca^2+ has other fluorescent properties). To begin with, in a manner known per se, in cell culture flasks a fresh culture of transformed HEK cells was prepared. […] Addition of the test samples in quantities of 50 μl/well and measurement of the change in fluorescence (e.g. in the FLIPR assay device, Molecular Devices or NovoStar, BMG) at 485 nm excitation, 520 nm emission, and evaluation of the effective strength of the various substances/concentrations and determination of the EC50 values. […]", "values": [
      {"molecule": "CC1CCC(C(C)C)C(O)C1", "note": "(centres unmarked) [menthol]", "bound on hydroxyapatite / released after incubation with human saliva": "nothing is bound on hydroxyapatite"}
    ]},
    {"test_system": "not given", "assay": "not given", "details": "described by Yarbrough et al. 2010; used as negative control; cited from earlier work", "values": [
      {"molecule": "LIKHILHRL", "binding to hydroxyapatite as described in literature": "non-binding"}
    ]},
    {"biological_target": "T1, human TRPM8 receptor (Homo sapiens, UniProt Q7Z2W7)", "T1 construct": "expressed in transfected cells; host or cells: HEK293-TRPM8 (transformed HEK cells, tetracycline-inducible expression)", "T1 sequence (Q7Z2W7 whole entry)": "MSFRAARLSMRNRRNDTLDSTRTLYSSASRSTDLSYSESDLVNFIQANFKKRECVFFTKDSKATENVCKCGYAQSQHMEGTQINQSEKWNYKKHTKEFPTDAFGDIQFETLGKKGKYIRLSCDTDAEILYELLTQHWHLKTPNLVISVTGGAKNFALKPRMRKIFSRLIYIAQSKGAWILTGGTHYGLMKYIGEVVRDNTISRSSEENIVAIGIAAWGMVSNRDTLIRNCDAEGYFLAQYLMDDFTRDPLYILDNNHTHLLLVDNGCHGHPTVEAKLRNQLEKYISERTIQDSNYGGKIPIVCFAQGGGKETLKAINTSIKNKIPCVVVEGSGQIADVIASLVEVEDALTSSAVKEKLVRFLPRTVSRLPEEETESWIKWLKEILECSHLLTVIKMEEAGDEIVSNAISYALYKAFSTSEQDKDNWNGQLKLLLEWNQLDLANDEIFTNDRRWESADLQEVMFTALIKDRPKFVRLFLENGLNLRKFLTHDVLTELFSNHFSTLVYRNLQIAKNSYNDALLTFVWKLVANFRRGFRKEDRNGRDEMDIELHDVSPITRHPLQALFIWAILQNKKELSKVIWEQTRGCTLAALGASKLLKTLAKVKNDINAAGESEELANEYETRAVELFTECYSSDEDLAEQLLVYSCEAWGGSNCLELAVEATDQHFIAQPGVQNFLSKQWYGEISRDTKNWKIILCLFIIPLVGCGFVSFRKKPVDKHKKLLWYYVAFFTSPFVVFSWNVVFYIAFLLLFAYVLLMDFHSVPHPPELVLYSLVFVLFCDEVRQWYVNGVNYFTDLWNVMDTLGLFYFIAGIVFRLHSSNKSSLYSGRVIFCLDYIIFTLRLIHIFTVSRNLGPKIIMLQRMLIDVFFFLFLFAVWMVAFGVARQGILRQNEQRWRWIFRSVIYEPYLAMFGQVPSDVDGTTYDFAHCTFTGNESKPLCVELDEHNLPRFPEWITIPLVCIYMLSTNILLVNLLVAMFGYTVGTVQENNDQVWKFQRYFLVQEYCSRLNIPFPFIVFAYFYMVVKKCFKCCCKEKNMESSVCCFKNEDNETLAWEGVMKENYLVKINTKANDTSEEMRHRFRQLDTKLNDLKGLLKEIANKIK", "assay": "Assay on TRPM8 activation (HEK293-TRPM8 cells, Ca2+-sensitive dye Fluo-4)", "type": "cell-based", "details": "before and after incubation with saliva", "experimental": "The HABP peptide—cooling compound-hybrid molecules of example 4 (1 μM in Tris buffer pH 8) were incubated with pooled human saliva (5 donors) 1:1 or as reference 1:1 in Tris buffer pH 8; 37° C., for 2 hrs at 37° C. Samples were frozen until evaluation in a cell based assay for activation of the human TRPM8 receptor.\nThe agonisation or antagonisation of the receptor was quantified by means of a Ca^2+-sensitive dye (e.g. FURA, Fluo-4, etc.). […] To begin with, in a manner known per se, in cell culture flasks a fresh culture of transformed HEK cells was prepared. […] Addition of the test samples in quantities of 50 μl/well and measurement of the change in fluorescence (e.g. in the FLIPR assay device, Molecular Devices or NovoStar, BMG) at 485 nm excitation, 520 nm emission, and evaluation of the effective strength of the various substances/concentrations and determination of the EC50 values.", "values": [
      {"molecule": "CC1CCC(C(C)C)C(O)C1", "note": "(centres unmarked) [menthol]", "bioactivity on the human cool receptor TRPM8": "bioactive"}
    ]}
  ]
}
